{"source": "patent US20030207813A1", "about": "“Retroviral protease inhibitor combinations” (priority 1995, published 2003)", "data": [{"system": "HIV-1 strain SF-162", "assay": "Acute infectivity assay in PHA-activated donor lymphocytes, isolate SF162", "assay_type": "cell-based", "settings": "Human immunodeficiency virus 1, Lymphocyte, Table 1, read-out: Virus Isolate (EC50 ng/mL) SF162", "procedure": "(§1) Approximately 3×10^7 cells are activated for 48 hours with about 3-5 μg/ml PHA in RPMI continuing 10% fetal bovine serum and IL-2 (10 U/ml). Quantitated virus stocks are added to the activated lymphocyte suspension at a multiplicity of infection of about 0.001-0.01. The cell-virus suspension is incubated at 37° C. for 2 hours to allow virus absorption. The residual virus inoculum is removed by centrifugation and the cells are resuspended in RPMI containing 10% FBS and 10 U/ml IL-2. These infected cells are added to the test-article diluted in complete tissue culture medium from a stock (10 mg/ml) in DMSO in 96 well microtiter plates to give about 5×10^5 cells per well per 200 μl. Infected, untreated cells and cells treated with DMSO alone (0.1%) or either AZT or DDI were used as controls. The cultures were examined for syncytia formation on days 7 and 11 post-infection or the supernants tested for reverse transcriptase activity or p24 antigen.\n(§2) RF represents the HIV-1 strain HIV-LRF and RFR represents a mixture of resistant strains obtained by selection of RF against the compound of Example 1. RFR comprises a mixture of viral strains having protease genotypes of G48V (14/40 clones); G48V, V82A (18/40 clones); G48V, L90S (2/40 clones); G48V, 154T, V82A (1/40 clones); G48M (1/40 clones); G48V, Q61H (1/40 clones); V13I, G48V (1/40 clones); G48V, F53L, V82A (1/40 clones); and G48V, V82A, C95Y (1/40 clones). RFR2 represents a mixture of resistant strains obtained by cloning RFR by three rounds of growth at limiting dilution. RFR2 comprises a mixture of viral strains having protease genotypes of G48V, V82A (13/15 clones); G17E, G48V, V82A (1/15 clones); and G48V, V82A, N37D, N88D (1/15 clones). RFRR represents a mixture of resistant strains obtained by selection of RF against the compounds of Examples 1 and 2 and then cloning by three rounds of growth at limiting dilution. RFRR comprises a mixture of viral strains having protease genotypes of G48V, 154T, L63P, V82A (7/9 clones); G48V, 154T, L63P, V82A, N88S (1/9 clones); and G48V, 154T, L63P, G73M, V82A (1/9 clones). SF162 represents the HIV-1 strain SF-162 and SF162R represents a mixture of resistant strains obtained by selection of SF162 against the compound of Example 1. SF162R comprises a mixture of viral strains having protease genotypes of M461, F53L, L63P, A71V, N88D (2/3 clones); and M46I, F53L, L63P, A71V, N88D, Q92R (1/3 clones). 89-959 represents the HIV-1 strain 89-959 and 89-959R represents a mixture of resistant strains obtained by selection of 89-959 against the compound of Example 2. 89-959R comprises a mixture of viral strains having protease genotypes of N88S (4/5 clones); and D25N, T26A, D30N, D37N, R41K, G73D, R87K, N88S (1/4 clones). NL4 represents the HIV-1 strain HIV-1NL4-3. NL4(G48V) represents a strain having a synthetically generated site-directed mutation in the protease from glycine to valine at amino acid position number 48. NL4(I84V) represents a strain having a synthetically generated site-directed mutation in the protease from isoleucine to valine at amino acid position number 84. NL4(R8Q,M46I) represents a strain having synthetically generated site-directed mutations in the protease from arginine to glutamine at amino acid position number 8 and methionine to isoleucine at amino acid position number 46. NL4(P22-538) represents a mixture of resistant strains obtained by selection of HIV-1NL4-3 against the compound of Example 10 after 22 passages comprising protease genotypes M46I, L63P, A71V, V82F, I84V (4/10); M46I, L63P, V82F, I84V (3/10); and M46I, A71V, V82F, I84V (3/10). NL4(P37-538) represents resistant strains obtained by selection of HIV-1NL4-3 against the compound of Example 10 after 37 passages comprising protease genotype M46I, L63P, A71V, 184A. NL4(538/524) represents resistant strains obtained by selection of NL4(P22-538) against the compound of Example 5 after 24 passages comprising protease genotype M46I, L63P, A71V, 184A. […]", "units": {"EC50": "ng/mL"}, "values": [{"smiles": "CNCC(=O)N[C@H](C(=O)N[C@@H](Cc1ccccc1)[C@H](O)CN(CCC(C)C)C(=O)NC(C)(C)C)C(C)(C)C", "note": "[Example 2, (2R,3S)-3-(N-methylaminoacetyl-L-tert-butylglycinyl)amino-1-(N-isoamyl-N-(tert-butylcarbamoyl))amino-4-phenyl-2-butanol]", "EC50": 2}, {"smiles": "CC(C)(C)NC(=O)[C@@H]1CN(Cc2cccnc2)CCN1C[C@@H](O)C[C@@H](Cc1ccccc1)C(=O)N[C@H]1c2ccccc2C[C@H]1O", "note": "[Example 5, N-(2(R)-Hydroxy-1(S)-indanyl)-2(R)-phenylmethyl-4(S)-hydroxy-5-(1-(4-(3-pyridylmethyl)-2(S)-N′-(t-butylcarboxamido)-piperazinyl))-pentaneamide]", "EC50": 4}, {"smiles": "CC(C)(C)NC(=O)[C@@H]1CC2CCCC[C@@H]2CN1C[C@@H](O)[C@H](Cc1ccccc1)NC(=O)[C@H](CC(N)=O)NC(=O)c1ccc2ccccc2n1", "note": "(stereo in doubt) [Example 6, N-tert-Butyl decahydro-2-[2(R)-hydroxy-4-phenyl-3(S)-[[N-(2-quinolylcarbonyl)-L-asparaginyl]amino]butyl]-(4aR,8aS)-isoquinoline-3(S)-carboxamide]", "EC50": 2}, {"smiles": "CC(C)CN(C[C@@H](O)[C@H](Cc1ccccc1)NC(=O)[C@H](CC(N)=O)NC(=O)c1ccc2ccccc2n1)C(=O)NC(C)(C)C", "note": "(relative stereo) [Example 1, [1S-[1R*(R*),2S*]]-N^1-[3-[[[(1,1-dimethylethyl)amino]carbonyl])2-methylpropyl)amino]-2-hydroxy-1-(phenylmethyl)propyl]-2-[(2-quinolinylcarbonyl)amino]-butanediamide]", "EC50": 31}]}, {"system": "HIV-1 strain SF-162", "assay": "Acute infectivity assay in PHA-activated donor lymphocytes, isolate SF162", "assay_type": "cell-based", "settings": "Human immunodeficiency virus 1, Lymphocyte, Table 2, read-out: Virus Isolate (EC50 ng/mL) SF162", "procedure": "as §1, §2", "units": {"EC50": "ng/mL"}, "values": [{"smiles": "CC(C)CCN(C[C@@H](O)[C@H](Cc1ccccc1)NC(=O)[C@H](CC(N)=O)NC(=O)c1ccc2ccccc2n1)C(=O)NC(C)(C)C", "note": "(relative stereo) [Example 7, [1S-[1R*(R*),2S*]]-N^1-[3-[[[(1,1-dimethylethyl)amino]carbonyl](3-methylbutyl)amino]-2-hydroxy-1-(phenylmethyl)propyl]-2-[(2-quinolinylcarbonyl)amino]-butanediamide]", "EC50": 1}, {"smiles": "CC(C)CN(C[C@@H](O)[C@H](Cc1ccccc1)NC(=O)[C@H](CC(N)=O)NC(=O)c1ccc2ccccc2n1)S(=O)(=O)NC(C)(C)C", "note": "[Example 8, N-[3-[N^2-[N^1-(1,1-dimethylethyl)aminosulfonyl]-N^2-(2-methylpropyl)amino]-2R-hydroxy-1S-(phenylmethyl)propyl]-2S-[(2-quinolinylcarbonyl)amino]butanediamide]", "EC50": 1}, {"smiles": "CC(C)CN(C[C@@H](O)[C@H](Cc1ccccc1)NC(=O)[C@H](CC(N)=O)NC(=O)c1ccc2ccccc2n1)C(=O)NC(C)(C)C", "note": "(relative stereo) [Example 1, [1S-[1R*(R*),2S*]]-N^1-[3-[[[(1,1-dimethylethyl)amino]carbonyl])2-methylpropyl)amino]-2-hydroxy-1-(phenylmethyl)propyl]-2-[(2-quinolinylcarbonyl)amino]-butanediamide]", "EC50": 2}]}]}
